# Patent publication US20020061836A1, “Methods for altering SXR activation using peptide mimetic HIV protease inhibitor SXR ligands” (priority 2000, published 2002)
# Read-outs that look alike come from different tables or passages of the source.
# Experiments:
# MRP2 mRNA = experiment: Northern analysis of MRP2 expression in primary human hepatocytes; type: cell-based
# Description: (§1) Northern Blot Analysis—Primary human hepatocytes were obtained from Clonetics (Walkersville, Md.) and cultured according to the vendors instructions. Cells were treated with the indicated compounds for 24 hours and total RNA was isolated using the Trizol reagent.
# (§2) After 24 hour exposure to the compounds, total RNA was prepared and analyzed by northern analysis using probes for MRP2 and the GAPDH control. […] CV-1 cells were transiently transfected with a Gal4 reporter and a vector expressing Gal4-fused to the ligand binding domain of human SXR (Gal-SXR).
# (§3) After 24 hour exposure to the compounds, total RNA was prepared and analyzed by northern analysis using probes for MDR1 and the GAPDH control.
# human RARα = molecular target: T1, human RARα (Homo sapiens, UniProt P10276); experiment: Nuclear receptor specificity transfection assay; type: cell-based; settings: 3 μM ritonavir
# T1 construct: expressed in transfected cells; host or cells: CV-1
# [1] = tested on: thyroid hormone receptor β (TRβ); settings: 3 μM ritonavir
# mouse PPARγ = molecular target: T2, mouse PPARγ (Mus musculus, UniProt P37238); experiment: Nuclear receptor specificity transfection assay; type: cell-based; settings: 3 μM ritonavir
# T2 construct: expressed in transfected cells; host or cells: CV-1
# FXR = molecular target: T3, FXR (Homo sapiens, UniProt Q96RI1); experiment: Nuclear receptor specificity transfection assay; type: cell-based; settings: 3 μM ritonavir
# T3 construct: expressed in transfected cells; host or cells: CV-1
# mouse PPARδ = molecular target: T4, mouse PPARδ (Mus musculus, UniProt P35396); experiment: Nuclear receptor specificity transfection assay; type: cell-based
# T4 construct: expressed in transfected cells; host or cells: CV-1
# T4 sequence (P35396 1-440): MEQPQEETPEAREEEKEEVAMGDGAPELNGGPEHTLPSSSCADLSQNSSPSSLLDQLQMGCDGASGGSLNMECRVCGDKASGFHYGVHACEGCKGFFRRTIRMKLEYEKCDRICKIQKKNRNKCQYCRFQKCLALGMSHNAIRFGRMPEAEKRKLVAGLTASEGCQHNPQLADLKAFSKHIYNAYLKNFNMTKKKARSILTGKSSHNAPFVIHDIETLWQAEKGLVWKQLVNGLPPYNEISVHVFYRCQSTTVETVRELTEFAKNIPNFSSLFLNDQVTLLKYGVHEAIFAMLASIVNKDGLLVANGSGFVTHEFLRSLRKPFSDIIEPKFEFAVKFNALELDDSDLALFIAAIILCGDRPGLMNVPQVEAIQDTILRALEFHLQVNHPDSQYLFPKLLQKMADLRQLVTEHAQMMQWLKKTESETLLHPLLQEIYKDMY
# human LXRα = molecular target: T5, human LXRα (Homo sapiens, UniProt Q13133); experiment: Nuclear receptor specificity transfection assay; type: cell-based
# T5 construct: expressed in transfected cells; host or cells: CV-1
# T5 sequence (Q13133 1-447): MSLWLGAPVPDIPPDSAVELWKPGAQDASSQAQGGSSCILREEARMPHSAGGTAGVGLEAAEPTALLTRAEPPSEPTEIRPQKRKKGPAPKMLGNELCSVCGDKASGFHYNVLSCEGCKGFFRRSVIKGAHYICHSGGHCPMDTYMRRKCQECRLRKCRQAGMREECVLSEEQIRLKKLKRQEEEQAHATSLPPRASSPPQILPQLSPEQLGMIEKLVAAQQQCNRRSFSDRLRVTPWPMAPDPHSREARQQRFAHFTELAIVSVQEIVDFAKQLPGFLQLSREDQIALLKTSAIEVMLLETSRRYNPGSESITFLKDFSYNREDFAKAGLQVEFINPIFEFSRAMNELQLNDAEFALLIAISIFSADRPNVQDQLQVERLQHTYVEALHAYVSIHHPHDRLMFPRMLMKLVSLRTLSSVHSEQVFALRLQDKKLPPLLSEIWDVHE
# mouse CARβ = molecular target: T6, mouse CARβ (Mus musculus, UniProt O35627); experiment: Nuclear receptor specificity transfection assay / LXRE×3-TK-luc reporter with CARβ in CV-1 cells; type: cell-based
# T6 sequence (O35627 1-358): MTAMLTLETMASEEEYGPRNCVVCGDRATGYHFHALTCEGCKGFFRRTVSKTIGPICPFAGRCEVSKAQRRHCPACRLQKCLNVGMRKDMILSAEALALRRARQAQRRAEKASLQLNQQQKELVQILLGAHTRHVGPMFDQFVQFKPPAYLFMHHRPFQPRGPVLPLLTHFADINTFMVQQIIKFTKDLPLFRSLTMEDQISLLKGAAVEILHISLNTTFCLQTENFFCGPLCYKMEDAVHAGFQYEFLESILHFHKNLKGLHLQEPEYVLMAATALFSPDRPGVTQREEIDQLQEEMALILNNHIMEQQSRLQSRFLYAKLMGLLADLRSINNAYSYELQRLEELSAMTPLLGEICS
# human ERα = human ERα (Homo sapiens, UniProt P03372); settings: 3 μM ritonavir
# mouse PPARα = molecular target: T7, mouse PPARα (Mus musculus, UniProt P23204); experiment: Nuclear receptor specificity transfection assay; type: cell-based
# T7 construct: expressed in transfected cells; host or cells: CV-1
# T7 sequence (P23204 1-468): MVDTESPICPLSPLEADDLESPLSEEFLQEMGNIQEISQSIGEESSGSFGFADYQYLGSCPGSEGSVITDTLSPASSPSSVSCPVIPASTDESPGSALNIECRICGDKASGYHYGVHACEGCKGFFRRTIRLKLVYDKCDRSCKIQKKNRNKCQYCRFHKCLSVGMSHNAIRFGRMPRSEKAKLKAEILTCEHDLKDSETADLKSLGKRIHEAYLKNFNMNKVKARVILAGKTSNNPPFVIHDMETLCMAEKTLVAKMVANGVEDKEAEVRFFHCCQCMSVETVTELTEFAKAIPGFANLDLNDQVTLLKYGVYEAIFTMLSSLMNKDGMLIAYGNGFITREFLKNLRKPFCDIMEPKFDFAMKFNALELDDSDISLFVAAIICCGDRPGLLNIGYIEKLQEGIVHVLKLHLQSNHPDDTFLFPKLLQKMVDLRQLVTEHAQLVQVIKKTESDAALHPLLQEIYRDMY
# MDR1 mRNA = experiment: Northern analysis of MDR1 expression in human LS180 cells; type: cell-based; settings: 3 μM ritonavir, 24 hour
# Description: (§4) Izbicka et al., Ann. Oncol.
# as §1, §3
# [2] = molecular target: T8, human RXRα ligand binding domain (Homo sapiens, UniProt P19793); experiment: Gal-L-RXR Gal4 reporter transient transfection assay in CV-1 cells; type: cell-based
# T8 construct: expressed in transfected cells; host or cells: CV-1
# T8 sequence (P19793 203-462): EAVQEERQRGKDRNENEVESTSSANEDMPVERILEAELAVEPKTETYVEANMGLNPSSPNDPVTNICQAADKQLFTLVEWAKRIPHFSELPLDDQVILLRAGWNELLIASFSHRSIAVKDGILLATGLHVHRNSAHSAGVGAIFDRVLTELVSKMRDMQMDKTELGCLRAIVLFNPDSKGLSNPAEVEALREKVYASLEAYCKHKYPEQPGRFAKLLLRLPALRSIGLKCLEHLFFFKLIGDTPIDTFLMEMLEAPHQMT
# From the text: (§5) The Gal4 reporter activity was normalized to the internal β-galactosidase control and the data plotted as fold activation relative to untreated cells. All transfections contained the Gal4 reporter and a β-galactosidase expression vector as an internal control.
# [3] = molecular target: T9, human SXR ligand binding domain (Homo sapiens, UniProt O75469); experiment: Gal-L-SXR (Gal-SXR) Gal4 reporter transient transfection assay in CV-1 cells; settings: CV-1 cells; for activation of Gal-L-SXR chimeric receptor: 10 μM compound (LG268 100 nM), about 24 h
# T9 sequence (O75469 107-434 limits assumed): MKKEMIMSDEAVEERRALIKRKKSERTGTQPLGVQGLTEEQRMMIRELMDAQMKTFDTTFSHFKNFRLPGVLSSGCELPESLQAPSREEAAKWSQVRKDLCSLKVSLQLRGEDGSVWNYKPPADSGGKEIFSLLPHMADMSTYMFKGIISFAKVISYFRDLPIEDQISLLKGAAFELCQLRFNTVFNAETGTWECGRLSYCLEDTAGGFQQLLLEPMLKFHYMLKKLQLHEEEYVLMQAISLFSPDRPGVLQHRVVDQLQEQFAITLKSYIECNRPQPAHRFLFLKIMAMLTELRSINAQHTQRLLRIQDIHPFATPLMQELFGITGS
# From the text: Use of a standard model heterologous cell system to reconstitute SXR agonist and antagonist responsiveness allows SXR activity to be monitored in the absence of the metabolic events which may obscure the process being tested. Any suitable heterologous cell system may be used to test the activation of potential or known SXR nuclear receptor ligands, as long as the cells are capable of being transiently transfected with the appropriate DNA which expresses receptors, reporter genes, response elements, and the like. Cells which constitutively express one or more of the necessary genes may be used as well. Cell systems that are suitable for the transient expression of mammalian genes and which are amenable to maintenance in culture are well known to those skilled in the art. […] Suitable reporter gene constructs are well known to skilled workers in the fields of biochemistry and molecular biology. Activity of the reporter gene can be conveniently normalized to the internal control and the data plotted as fold activation relative to untreated cells.
# as §5, §4
# (§6) Gal-PXR containing the ligand binding domain of mouse PXR (#AF031814) was obtained from Bruce Blumberg.
# Transient Transffection Assays—CV-1 cells were grown and transfected as described.
# [4] = tested on: LS180 human colon cancer cells; experiment: [14C]-paclitaxel efflux from pretreated LS180 cells; type: cell-based; settings: LS180 cells induced 48 hours with 10 μM paclitaxel, 10 μM docetaxel or 100 nM LG268
# Description: Taxane-induced drug efflux was measured using pretreated LS180 human colon cancer cells. The rate of drug efflux was measured. […] Individual data points are the means of triplicate determinations, error bars represent standard deviation and the lines are lines of regression. The slope of each line (rate of efflux) was compared to the slope obtained in the control (untreated) cells using an analysis of covariance. […] The entire experiment was performed three times with similar results. […] The cells were then incubated in media supplemented with 10 μM [^14C]-paclitaxel (4.9 μCi/umol, Moravek Biochemicals, Brea, Calif.) for 15 minutes. The uptake of ^14C-paclitaxel reached maximum levels at 10-12 minutes (data not shown). After 15 minutes, the cells were then rapidly centrifuged through silicone oil to remove all traces of extracellular radioactivity, resuspended in fresh media, and cell counts determined. At multiple time points over the next 10 minutes, triplicate aliquots of the cell suspension (approx. 1×10^5 cells/aliquot) were again centrifuged through silicon oil and the radioactivity in the cell pellet measured by quench-corrected liquid scintillation counting. The rate of [^14C]-paclitaxel efflux was determined as the slope of the [^14C]-paclitaxel versus time plots using all data. The slope for each inducer was compared to the slope obtained in the control (untreated) cells using an analysis of covariance.
# mouse PXR = mouse PXR (Mus musculus, UniProt O54915); settings: 10 μM
# Description: as §6, §2
# CV-1 cells were transiently transfected with Gal-SXR as in FIG. 21 above. […] Fold activation was determined relative to untreated cells. […] CV-1 cells were transiently transfected with Gal-PXR as in FIG. 21 above. […] FIG. 26: Coactivator recruitment by various HIV protease inhibitors SXR. […] Specific binding was measured as described in the Materials and Methods. Error bars indicate the range of duplicate data points.
# T3 sequence (Q96RI1 whole entry, species assumed): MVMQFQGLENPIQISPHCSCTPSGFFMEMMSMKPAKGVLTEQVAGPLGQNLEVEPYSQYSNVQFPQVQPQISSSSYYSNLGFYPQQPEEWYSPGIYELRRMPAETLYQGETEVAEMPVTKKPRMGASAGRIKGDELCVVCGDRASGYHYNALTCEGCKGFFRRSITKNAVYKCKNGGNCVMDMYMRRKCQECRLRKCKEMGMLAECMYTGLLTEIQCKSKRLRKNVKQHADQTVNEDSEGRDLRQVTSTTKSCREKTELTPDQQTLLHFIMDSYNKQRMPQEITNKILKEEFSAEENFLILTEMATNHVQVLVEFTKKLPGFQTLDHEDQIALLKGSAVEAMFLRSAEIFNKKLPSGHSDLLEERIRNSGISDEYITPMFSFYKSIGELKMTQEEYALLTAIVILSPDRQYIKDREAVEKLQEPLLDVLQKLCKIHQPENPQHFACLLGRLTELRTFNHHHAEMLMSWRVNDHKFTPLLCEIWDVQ
# T2 sequence (P37238 whole entry): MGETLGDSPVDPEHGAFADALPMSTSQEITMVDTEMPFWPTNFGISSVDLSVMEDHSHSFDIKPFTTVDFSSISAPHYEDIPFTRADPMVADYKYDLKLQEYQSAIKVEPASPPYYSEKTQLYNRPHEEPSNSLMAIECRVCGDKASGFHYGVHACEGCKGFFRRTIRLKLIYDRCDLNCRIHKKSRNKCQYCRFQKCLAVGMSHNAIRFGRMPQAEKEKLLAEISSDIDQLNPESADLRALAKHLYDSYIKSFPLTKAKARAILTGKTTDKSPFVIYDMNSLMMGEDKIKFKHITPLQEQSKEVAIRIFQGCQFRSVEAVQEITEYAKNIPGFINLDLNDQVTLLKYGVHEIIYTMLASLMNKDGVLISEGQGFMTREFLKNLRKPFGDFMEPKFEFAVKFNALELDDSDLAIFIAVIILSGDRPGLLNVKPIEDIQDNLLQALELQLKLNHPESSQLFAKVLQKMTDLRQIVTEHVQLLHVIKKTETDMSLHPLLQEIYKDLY
# T1 sequence (P10276 whole entry): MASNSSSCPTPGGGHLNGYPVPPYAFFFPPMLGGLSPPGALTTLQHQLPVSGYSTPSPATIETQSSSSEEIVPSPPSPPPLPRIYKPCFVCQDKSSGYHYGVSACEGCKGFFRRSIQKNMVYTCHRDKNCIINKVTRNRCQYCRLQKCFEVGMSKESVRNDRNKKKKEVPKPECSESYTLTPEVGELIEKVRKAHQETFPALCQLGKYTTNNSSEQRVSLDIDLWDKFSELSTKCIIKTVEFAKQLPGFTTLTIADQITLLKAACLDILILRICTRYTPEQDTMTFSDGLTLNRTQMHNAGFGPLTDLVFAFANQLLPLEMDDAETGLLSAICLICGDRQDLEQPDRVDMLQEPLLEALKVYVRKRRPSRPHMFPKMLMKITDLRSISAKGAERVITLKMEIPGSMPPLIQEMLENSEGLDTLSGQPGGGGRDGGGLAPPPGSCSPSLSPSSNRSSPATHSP
# human ERα, sequence (P03372 whole entry): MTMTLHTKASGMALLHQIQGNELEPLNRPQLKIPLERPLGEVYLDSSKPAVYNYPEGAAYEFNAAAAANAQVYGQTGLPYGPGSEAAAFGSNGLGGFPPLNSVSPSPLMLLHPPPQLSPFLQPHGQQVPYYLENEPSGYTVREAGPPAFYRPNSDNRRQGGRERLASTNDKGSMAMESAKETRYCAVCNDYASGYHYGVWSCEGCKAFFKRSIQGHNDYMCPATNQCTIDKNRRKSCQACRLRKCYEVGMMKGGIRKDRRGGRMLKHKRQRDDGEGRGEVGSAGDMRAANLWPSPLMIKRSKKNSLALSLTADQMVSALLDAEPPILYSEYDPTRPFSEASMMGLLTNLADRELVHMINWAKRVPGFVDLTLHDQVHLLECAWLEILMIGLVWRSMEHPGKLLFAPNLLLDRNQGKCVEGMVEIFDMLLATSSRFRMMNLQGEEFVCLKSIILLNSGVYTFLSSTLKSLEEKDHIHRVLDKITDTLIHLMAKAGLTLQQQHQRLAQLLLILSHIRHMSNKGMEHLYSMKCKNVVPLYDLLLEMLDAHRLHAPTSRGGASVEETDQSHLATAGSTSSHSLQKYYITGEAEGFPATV
# mouse PXR, sequence (O54915 143-430 limits assumed): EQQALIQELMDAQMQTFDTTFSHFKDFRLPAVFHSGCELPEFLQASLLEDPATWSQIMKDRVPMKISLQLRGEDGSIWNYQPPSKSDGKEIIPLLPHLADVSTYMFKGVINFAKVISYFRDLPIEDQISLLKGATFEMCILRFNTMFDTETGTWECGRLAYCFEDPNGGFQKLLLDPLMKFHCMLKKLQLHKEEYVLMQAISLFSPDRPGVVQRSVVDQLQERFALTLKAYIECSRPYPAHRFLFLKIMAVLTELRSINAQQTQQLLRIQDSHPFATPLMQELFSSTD
compound,measurement,setting,value
hyperforin,MRP2 mRNA expression,MRP2 mRNA,induced expression
CC(C)c1nc(CN(C)C(=O)N[C@H](C(=O)N[C@@H](Cc2ccccc2)C[C@H](O)[C@H](Cc2ccccc2)NC(=O)OCc2cncs2)C(C)C)cs1 [ritonavir],effect on retinoic acid receptor α reporter activity,human RARα,no effect
same,MRP2 mRNA expression,"MRP2 mRNA; primary human hepatocytes, 3 μM ritonavir, 24 hour",activated expression
same,effect on thyroid hormone receptor β reporter activity,[1],no effect
same,effect on PPARγ reporter activity,mouse PPARγ,no effect
same,effect on FXR reporter activity,FXR,no effect
same,effect on PPARδ reporter activity,mouse PPARδ; 3 μM ritonavir,no effect
same,effect on LXRα reporter activity,human LXRα; 3 μM ritonavir,no effect
same,effect on CARβ reporter activity,mouse CARβ; 3 μM ritonavir,no effect
same,effect on estrogen receptor α reporter activity,human ERα,no effect
same,effect on PPARα reporter activity,mouse PPARα; 3 μM ritonavir,no effect
same,MDR1 mRNA expression,MDR1 mRNA,strongly induced
same,effect on RXRα reporter activity,[2]; 3 μM ritonavir,no effect
same,activation of Gal-RXR,"[2]; ritonavir dose response, same doses as for SXR",failed to activate
COC(=O)CC[C@@H](C)[C@H]1CC[C@H]2[C@@H]3C[C@H](O)[C@@H]4C[C@H](O)CC[C@]4(C)[C@H]3CC[C@]12C [hyodeoxycholic acid methyl ester],fold activation by cognate ligand (positive control),human LXRα; 30 μM,4.5 fold
CC(=O)O[C@H]1C(=O)[C@@]2(C)[C@H]([C@H](OC(=O)c3ccccc3)[C@]3(O)C[C@H](OC(=O)[C@H](O)[C@@H](NC(=O)c4ccccc4)c4ccccc4)C(C)=C1C3(C)C)[C@]1(OC(C)=O)CO[C@@H]1[C@@H](O)[C@@H]2O [6α-hydroxypaclitaxel],activation of Gal-L-SXR chimeric receptor,[3],No activation
C[C@@]12CCC[C@H]1[C@@H]1CC[C@H]3C[C@@H](O)CC[C@]3(C)[C@H]1CC2 [androstanol],fold repression by cognate ligand (positive control),mouse CARβ; 5 μM,50 fold
same,effect on transcriptional activity of CARβ,"mouse CARβ; LXRE×3-TK-luc reporter, 5 μM androstanol or 50 nM ET-743",inhibited
CCCCC[C@H](O)/C=C/[C@@H]1[C@H]2C/C(=C/CCCC(=O)O)C[C@H]2C[C@H]1O [arbaprostacyclin],fold activation by cognate ligand (positive control),mouse PPARδ; 1 μM,14 fold
"Cc1cccc(Nc2cc(Cl)nc(SCC(=O)O)n2)c1C [Wy 14,643]",fold activation by cognate ligand (positive control),mouse PPARα; 5 μM,13 fold
CC(=O)O[C@H]1C(=O)[C@@]2(C)[C@H]([C@H](OC(=O)c3ccccc3)[C@]3(O)C[C@H](OC(=O)[C@H](O)[C@@H](NC(=O)c4ccccc4)c4ccc(O)cc4)C(C)=C1C3(C)C)[C@]1(OC(C)=O)CO[C@@H]1C[C@@H]2O [3′-p-hydroxypaclitaxel],activation of Gal-L-SXR chimeric receptor,[3],No activation
Cc1cc2c(cc1C1(c3ccc(C(=O)O)cn3)CC1)C(C)(C)CCC2(C)C [LG268],rate of [14C]-paclitaxel efflux versus untreated cells,[4],did not differ from controls
CC(=O)[C@H]1[C@H](C#N)C[C@H]2[C@@H]3CC=C4C[C@@H](O)CC[C@]4(C)[C@H]3CC[C@@]21C,activation of Gal-SXR,"[3]; 2.5 μM hyperforin, 10 μM rifampicin, 3 μM ritonavir, 10 μM PCN",not
same,activation of Gal-L-SXR chimeric receptor,[3],not
same,fold activation by cognate ligand (positive control),mouse PXR,23 fold
